“And” between values parts separate entries of the source, which are not always exact repeats. Identical values can stand only once. Toxic doses and inconclusive results are not listed. Cut-off read from the data, not from the text of the source: active = T/C of 150% or more; inactive = T/C below 125%.
Tested on: L1210 leukemia ip in BDF1 mice, survival T/C
Assay: NCI In Vivo Anticancer Drug Screen. Data for tumor model L1210 Leukemia (intraperitoneal) in B6D2F1 (BDF1) mice
Conditions: endpoint: mean survival time, higher = longer survival
In short: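 Read-out is survival time, reported as the treated-group measurement over the vehicle-control measurement.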

[1] = dose: 100.0 mg/kg/injection, schedule: Q04DX002 (ip), vehicle: Klucel (hydroxypropylcellulose) (HPC)
[2] = dose: 100.0 mg/kg/injection, schedule: Q01DX009 (ip), vehicle: Klucel (hydroxypropylcellulose) (HPC)
[3] = dose: 100.0 mg/kg/injection, schedule: Q04DX003 (ip), vehicle: Klucel (hydroxypropylcellulose) (HPC)
[4] = dose: 200.0 mg/kg/injection, schedule: Q01DX009 (ip), vehicle: Klucel (hydroxypropylcellulose) (HPC)
[5] = dose: 200.0 mg/kg/injection, schedule: Q04DX003 (ip), vehicle: Klucel (hydroxypropylcellulose) (HPC)
[6] = dose: 400.0 mg/kg/injection, schedule: Q04DX003 (ip), vehicle: Klucel (hydroxypropylcellulose) (HPC)
[7] = dose: 25.0 mg/kg/injection, schedule: Q01DX009 (ip), vehicle: Klucel (hydroxypropylcellulose) (HPC)
[8] = dose: 50.0 mg/kg/injection, schedule: Q01DX009 (ip), vehicle: Klucel (hydroxypropylcellulose) (HPC)
[9] = dose: 200.0 mg/kg/injection, schedule: Q04DX002 (ip), vehicle: Klucel (hydroxypropylcellulose) (HPC)
[10] = dose: 400.0 mg/kg/injection, schedule: Q04DX002 (ip), vehicle: Klucel (hydroxypropylcellulose) (HPC)
[11] = dose: 100.0 mg/kg/injection, schedule: Q01DX009 (ip), vehicle: saline with Tween-80
[12] = dose: 200.0 mg/kg/injection, schedule: Q01DX009 (ip), vehicle: saline with Tween-80
[13] = dose: 400.0 mg/kg/injection, schedule: Q01DX009 (ip), vehicle: saline with Tween-80
[14] = dose: 400.0 mg/kg/injection, schedule: Q01DX009 (ip), vehicle: Klucel (hydroxypropylcellulose) (HPC)
[15] = dose: 100.0 mg/kg/injection, schedule: Q04DX002 (ip), vehicle: saline with Tween-80
[16] = dose: 200.0 mg/kg/injection, schedule: Q04DX002 (ip), vehicle: saline with Tween-80
[17] = dose: 400.0 mg/kg/injection, schedule: Q04DX002 (ip), vehicle: saline with Tween-80
[18] = dose: 100.0 mg/kg/injection, schedule: Q01DX009 (ip), vehicle: saline
[19] = dose: 100.0 mg/kg/injection, schedule: Q04DX003 (ip), vehicle: saline
[20] = dose: 200.0 mg/kg/injection, schedule: Q01DX009 (ip), vehicle: saline
[21] = dose: 200.0 mg/kg/injection, schedule: Q04DX003 (ip), vehicle: saline
[22] = dose: 400.0 mg/kg/injection, schedule: Q01DX009 (ip), vehicle: saline

Measured: T/C

Cc1c(C)c(C)c(CN2CCCC2)c(C)c1C
inactive: dose: 12.5 mg/kg/injection, schedule: Q01DX005 (ip), vehicle: Klucel (hydroxypropylcellulose) (HPC) 107 % of control | dose: 12.5 mg/kg/injection, schedule: Q04DX002 (ip), vehicle: Klucel (hydroxypropylcellulose) (HPC) 109 % of control | dose: 25.0 mg/kg/injection, schedule: Q01DX005 (ip), vehicle: Klucel (hydroxypropylcellulose) (HPC) 97 % of control | dose: 25.0 mg/kg/injection, schedule: Q04DX002 (ip), vehicle: Klucel (hydroxypropylcellulose) (HPC) 86 % of control | dose: 35.0 mg/kg/injection, schedule: Q01DX009 (ip), vehicle: Klucel (hydroxypropylcellulose) (HPC) 90 % of control | dose: 50.0 mg/kg/injection, schedule: Q04DX002 (ip), vehicle: Klucel (hydroxypropylcellulose) (HPC) 112 % of control | [1] 94 % of control

CCCSC(=O)N(CC)C(=NCC)c1ccc(NC(=O)c2ccc(C(=O)Nc3ccc(C(=NCC)N(CC)C(=O)SCCC)cc3)cc2)cc1
inactive: dose: 2.25 mg/kg/injection, schedule: Q01DX015 (ip), vehicle: methylcellulose (MC) 104 % of control | dose: 4.5 mg/kg/injection, schedule: Q01DX015 (ip), vehicle: methylcellulose (MC) 100 % of control | dose: 9.0 mg/kg/injection, schedule: Q01DX015 (ip), vehicle: methylcellulose (MC) 100 % of control | dose: 18.0 mg/kg/injection, schedule: Q01DX015 (ip), vehicle: methylcellulose (MC) 102 % of control | dose: 75.0 mg/kg/injection, schedule: Q01DX015 (ip), vehicle: methylcellulose (MC) 90 % of control | dose: 150.0 mg/kg/injection, schedule: Q01DX015 (ip), vehicle: methylcellulose (MC) 86 % of control

CSc1ncc(Br)c(Cl)n1
inactive: dose: 5.0 mg/kg/injection, schedule: Q01DX001 (ip), vehicle: carboxymethylcellulose (CMC) 95 % of control | dose: 10.0 mg/kg/injection, schedule: Q01DX001 (ip), vehicle: carboxymethylcellulose (CMC) 98 % of control | dose: 20.0 mg/kg/injection, schedule: Q01DX001 (ip), vehicle: carboxymethylcellulose (CMC) 95 % of control | dose: 40.0 mg/kg/injection, schedule: Q01DX001 (ip), vehicle: carboxymethylcellulose (CMC) 93 % of control | dose: 80.0 mg/kg/injection, schedule: Q01DX001 (ip), vehicle: carboxymethylcellulose (CMC) 93 % of control

CC1=CC(=O)CC(=O)O1
inactive: dose: 100.0 mg/kg/injection, schedule: Q01DX001 (ip), vehicle: Klucel (hydroxypropylcellulose) (HPC) 103 % of control | [2] 96 % of control | [3] 97 % of control | dose: 200.0 mg/kg/injection, schedule: Q01DX001 (ip), vehicle: Klucel (hydroxypropylcellulose) (HPC) 108 % of control | [4] 94 % of control | [5] 101 % of control | dose: 400.0 mg/kg/injection, schedule: Q01DX001 (ip), vehicle: Klucel (hydroxypropylcellulose) (HPC) 103 % of control | [6] 95 % of control

CCCc1c2cc(OC)c(OC)cc2cc2c3cc(OC)c(OC)cc3cc[n+]12 (tested in a mixture with another compound)
inactive: dose: 12.5 mg/kg/injection, schedule: Q01DX009 (ip), vehicle: Klucel (hydroxypropylcellulose) (HPC) 109 % of control | [7] 107 % of control | [8] 106 % of control and 123 % of control | [3] 100 % of control | [5] 110 % of control

COc1ccc(/C=C2\N=C(c3cc(OC)c(OC)c(OC)c3)OC2=O)cc1OC
inactive: [1] 123 % of control | [9] 101 % of control | [10] 101 % of control

COC(=O)C1(C)CCCC2(C)C1CCC13C=C(C(C)C)C(CC1C(=O)O)CC23 (stereo not drawn)
inactive: [11] 95 % of control | [12] 93 % of control | [13] 87 % of control

C1=C2NNC(c3ccccc3)=C(c3ccccc3)C2=CCC1 (tested in a mixture with another compound)
inactive: [8] 94 % of control | [2] 90 % of control | [4] 90 % of control

CC(Cc1ccccc1)NC(=O)/C=C/C(=O)O (stereo not drawn)
inactive: [2] 96 % of control | [3] 103 % of control | [4] 106 % of control | [5] 90 % of control | [14] 95 % of control | [6] 101 % of control

COc1ccc(N=CN(C)C)nn1
inactive: [15] 91 % of control | [16] 97 % of control | [17] 97 % of control

CC(=O)SCN1C(=O)C2C3CCC(O3)C2C1=O (stereo not drawn)
inactive: [1] 91 % of control | [9] 91 % of control | [10] 105 % of control

Nc1cc2c(cc1Br)-c1c(C(=O)O)cccc1C2=O
inactive: dose: 75.0 mg/kg/injection, schedule: Q01DX001 (ip), vehicle: carboxymethylcellulose (CMC) 101 % of control | dose: 150.0 mg/kg/injection, schedule: Q01DX001 (ip), vehicle: carboxymethylcellulose (CMC) 95 % of control | dose: 300.0 mg/kg/injection, schedule: Q01DX001 (ip), vehicle: carboxymethylcellulose (CMC) 98 % of control

CCCCCCCCCCCCCCCCCCCCCCCCCC(=O)OCCCCCCCCCCCCCC
inactive: [18] 107 % of control | [19] 109 % of control | [20] 96 % of control | [21] 97 % of control | [22] 94 % of control | dose: 400.0 mg/kg/injection, schedule: Q04DX003 (ip), vehicle: saline 98 % of control

O=S(=O)(C(Cl)Cl)C(Cl)(Cl)S(=O)(=O)C(Cl)Cl
inactive: [7] 96 % of control | [8] 102 % of control | [2] 94 % of control and 90 % of control

CCC(=O)OC1CC2(C)C(=CC1=O)CCC1C2CCC2(C)C(OC(=O)CC)CCC12 (stereo not drawn)
inactive: [18] 97 % of control | [20] 96 % of control | [22] 96 % of control

CCOC(=O)/C(C)=N\Nc1ccc(Cl)cc1
inactive: [2] 106 % of control | [3] 102 % of control | [4] 98 % of control | [5] 98 % of control | [14] 98 % of control | [6] 99 % of control

NC(=O)C1CCCC12NC(=O)NC2=O (stereo not drawn)
inactive: [2] 104 % of control | [3] 100 % of control | [4] 94 % of control | [5] 103 % of control | [14] 93 % of control | [6] 97 % of control

O=C(O)CC(NC(=O)OCc1ccccc1)c1ccc(Cl)cc1 (stereo not drawn)
inactive: dose: 100.0 mg/kg/injection, schedule: Q01DX001 (ip), vehicle: saline with Tween-80 90 % of control | [11] 100 % of control and 112 % of control | [15] 103 % of control | dose: 100.0 mg/kg/injection, schedule: Q04DX003 (ip), vehicle: saline with Tween-80 101 % of control | dose: 200.0 mg/kg/injection, schedule: Q01DX001 (ip), vehicle: saline with Tween-80 94 % of control | [12] 93 % of control and 102 % of control | [16] 103 % of control | dose: 200.0 mg/kg/injection, schedule: Q04DX003 (ip), vehicle: saline with Tween-80 93 % of control | dose: 400.0 mg/kg/injection, schedule: Q01DX001 (ip), vehicle: saline with Tween-80 101 % of control | [17] 92 % of control | dose: 400.0 mg/kg/injection, schedule: Q04DX003 (ip), vehicle: saline with Tween-80 101 % of control

CC(C)N(CCN)C(C)C
inactive: dose: 50.0 mg/kg/injection, schedule: Q01DX009 (ip), vehicle: saline 94 % of control | [18] 103 % of control | [19] 95 % of control | [20] 103 % of control | [21] 97 % of control

CCCCCCOc1ccc(/C=N\N=C\c2ccc(OCCCCCC)cc2)cc1
inactive: [11] 92 % of control | [12] 89 % of control | [13] 91 % of control

NCCSSSSCCN
inactive: dose: 100.0 mg/kg/injection, schedule: Q01DX001 (ip), vehicle: saline 96 % of control | dose: 200.0 mg/kg/injection, schedule: Q01DX001 (ip), vehicle: saline 105 % of control

COC(=O)CNCc1ccccc1
inactive: dose: 100.0 mg/kg/injection, schedule: Q01DX009 (ip), vehicle: water 98 % of control | dose: 200.0 mg/kg/injection, schedule: Q01DX009 (ip), vehicle: water 115 % of control | dose: 400.0 mg/kg/injection, schedule: Q01DX009 (ip), vehicle: water 100 % of control

Source: PubChem BioAssay AID248 (DTP/NCI, 2004)
